# ChEMBL document CHEMBL3507680, “University of Dundee, Gates Library screen for HepG2 cell viability”
# Assay: Human HepG2 cell viability assay in 384 well format
# Assay type: toxicity, cell-based
# Set-up: dose 125 nL, time 70.5 hour; concentration not given beside the values
# Conditions: HepG2 cells, read-out: Inhibition
row,SMILES,cytotoxicity at 70.5 h [%]
1,C/N=C1\c2cc3cc(OC)ccc3n2CCN1C,-6.1
2,COC(=O)CSc1nnc2[nH]c(=O)c3c(n12)CCCC3,-13.8
3,CCCNC(=O)CSc1nnc2[nH]c(=O)c3c(n12)CCCC3,12.2
4,COc1nn(C)cc1C(=O)N1CCC(C)CC1,26.1
5,O=C(Nc1ncnc2c1CCC2)c1ccc2c(c1)OCO2,1.01
6,Cc1cnc2c(c1NCc1cccnc1)c(=O)n(C)c(=O)n2C,-0.599
7,CCc1cnc2c(c1Nc1ccc3c(c1)OCO3)c(=O)n(C)c(=O)n2C,-1.57
8,CNC(=O)Cn1nc(C(C)C)c2cnn(C(C)(C)C)c2c1=O,25.5
9,COc1ccc(CCC(=O)NCc2cc(C)on2)cc1,8.95
10,Cc1cnc2n(c1=O)C(CC(=O)NCc1ccc(Cl)cc1)CS2 (stereo not drawn),-5.3
11,Cc1cnc2n(c1=O)C(CC(=O)NCc1ccco1)CS2 (stereo not drawn),-0.737
12,CCCc1cc(=O)[nH]c2nnc(SCC(=O)NC(C)(C)C)n12,-8.6
13,CCn1cnc2c(cnn2-c2cccc(C)c2C)c1=O,45.8
14,CCCn1cnc2c(cnn2-c2cccc(C)c2C)c1=O,37.7
15,CCCc1cc(=O)n(CC(=O)NC(C)C)c(-n2nc(C)cc2C)n1,-4.73
16,O=C(CSC1=NS(=O)(=O)c2cc(F)ccc2N1)Nc1ccc(Cl)c(Cl)c1,19.7
17,COCC(=O)NCc1nn(CCN2CCCC2)c(=O)c2ccccc12,29
18,CCOC(=O)NCc1nn(CCN2CCCC2)c(=O)c2ccccc12,1.9
19,Cn1cnnc1SCCCNC(=O)Nc1ncccn1,-2.46
20,COc1cn(CC(N)=O)c(CSc2nccc(C)n2)cc1=O,23.4
21,C=Cc1ccc(CSc2nc3c(c(=O)[nH]2)CN(CCC)CC3)cc1,8.58
22,CC(=O)c1c(C)nn(CC(=O)Nc2ccc(Br)cc2)c1C,4.72
23,CC(C)(C)S(=O)(=O)c1ccc(N2CCN(c3ccccc3)CC2)nn1,-8.92

row,SMILES,cytotoxicity at 70.5 h [%]
1,CC(C)(C)S(=O)(=O)c1ccc(N2CCN(c3ccccn3)CC2)nn1,-17.1
2,CCCS(=O)(=O)c1ccc(N2CCN(c3ccccn3)CC2)nn1,2.28
3,COC(=O)CNC(=O)c1sccc1N(C)S(=O)(=O)c1ccc(Cl)cc1,2.69
4,CCN(c1ccsc1C(=O)N1CCCCC1)S(=O)(=O)c1ccccc1,-11.9
5,CCN(CC)c1nc2ccsc2c(=O)n1CCC(=O)NCc1cccs1,-9.85
6,COC(=O)CN1N=C(C(=O)N2CCCC2)S(=O)(=O)c2ccccc21,-4.54
7,COc1ncc(C(=O)NCc2ccc(Br)cc2)cn1,-2.74
8,O=c1c(S(=O)(=O)N2CCCC2)cccn1Cc1ccccc1Cl,-6.09
9,O=c1[nH]c2c(-c3ccccn3)nsc2c(=O)n1CC1CCCO1 (stereo not drawn),-11.7
10,Cc1cc(C)n(-c2ccnc(N3CCC(C(=O)N4CCCC4)CC3)n2)n1,-4.06
11,COc1ccc(OC)c(C(O)CN2CCN(c3cccc(C)c3)CC2)c1 (stereo not drawn),7.32
12,O=C(O)C1CCN(c2nc3c(-c4ccccc4F)csc3c(=O)[nH]2)CC1,-0.14
13,COCCCNC(=O)Cc1cc(-c2ccc3c(c2)OCO3)on1,13.4
14,COc1nn(C)cc1-c1nnc(SCc2cccnc2)n1C,-5.69
15,CCOc1nn(CC)cc1-c1nnc(SCc2ccccn2)n1C,-6.8
16,CC(=O)N1C[C@H]2CCCN(c3ncc(C)cn3)[C@H]2C1,-11.8
17,Cc1cnc(N2CCC[C@@H]3CN(S(C)(=O)=O)C[C@@H]32)nc1,-14.9
18,O=C(CCO)N1CC2(CCN(c3ccccc3)C2)C1,-1.72
19,CC(C)NC(=O)N1CCC2(CCCO2)C1 (stereo not drawn),14.2
20,CCOC1CC2(CCN(Cc3cnn(C)c3)CC2)c2ccc(C)cc21 (stereo not drawn),1.09
21,CCCN1CCC2(C1)c1ccccc1S(=O)(=O)N2Cc1ccc(F)cc1 (stereo not drawn),-1.79
22,CCOC(=O)C1CN(S(C)(=O)=O)Cc2ncn(CC)c21 (stereo not drawn),-0.182
23,Cc1ccc(NC(=O)c2nc3c(s2)CCCN3C(C)C)cn1,-0.97

row,SMILES,cytotoxicity at 70.5 h [%]
1,c1coc(CN2CCn3c(CN4CCOCC4)nnc3C2)c1,-1.27
2,Cc1noc([C@]23COC[C@H]2CN(S(C)(=O)=O)C3)n1,-1.56
3,CCOC1CC2(CCN(CCO)CC2)c2ccc(C)cc21 (stereo not drawn),1.71
4,CN(C)C(=O)NCc1nnc2n1CCN(Cc1ccsc1)C2,3.34
5,O=C(c1cc(-c2ccn(CC3CC3)n2)n2ccccc12)N1CCOCC1,-2.8
6,CN(C)C[C@H]1OC[C@@H]2CCN(C(=O)NCc3cccc(F)c3)C[C@@H]21,-5.72
7,O=C(C1CN(Cc2ccoc2)CC12CCOCC2)N1CCCC1 (stereo not drawn),7.01
8,O=C(O)c1cc(-c2ccn(CC3CC3)n2)n2ccccc12,-1.77
9,CC(=O)N1CC[C@H]2C(=O)N(c3ccsc3)CCO[C@H]2C1,-2.46
10,CS(=O)(=O)NCc1noc2c1CN(C(=O)c1ccsc1)CC2,-7.43
11,O=C(NCc1ccco1)N1CCCCC1c1nc(-c2ccncc2)no1 (stereo not drawn),-12.6
12,Cc1ccc(N2N=C(C(=O)O)S(=O)(=O)c3cccnc32)cc1,-8.77
13,CCc1nn2c(=N)c(C#N)n[nH]c2c1-c1ccc(OC)cc1,-18.3
14,Cn1c(=O)n(C)c2cc(NS(=O)(=O)Cc3ccccc3)ccc21,-6.3
15,COc1ccc(-c2c(C(C)C)nn3c(=N)c(C#N)n[nH]c23)cc1,-20.1
16,COc1ccc(-c2c(C)nn3c(=N)c(C#N)n[nH]c23)cc1OC,-15.3
17,Cc1noc2nc3c(c(C(=O)/N=c4\[nH]ncs4)c12)CCC3,25.6
18,COC(=O)CC1CCN(C(=O)c2ccc(-n3nnnc3C)cc2)CC1,-11.6
19,O=c1cc(-c2ccc(F)cc2)nc2n1CCCCC2,-14
20,COC(=O)c1cc2c(OC)c(OC)c(OC)cc2[nH]1,-19.4
21,COC(=O)c1cc2c(OC)c(C)c(OC)cc2[nH]1,-9.36
22,CCOC(=O)Cn1cccc(S(=O)(=O)N2CCCC2)c1=O,-26.6
23,O=S(=O)(NC1=NCN(CCc2cccs2)CN1)c1ccc(Cl)cc1,-14.8

row,SMILES,cytotoxicity at 70.5 h [%]
1,NC(=O)C1CCN(C(=O)CCn2ccc3ccc(Br)cc32)CC1,-33.3
2,CN(C(=O)Cn1nc(-c2ccc(Br)cc2)ccc1=O)C1CCS(=O)(=O)C1 (stereo not drawn),-22.4
3,O=C(NCCCN1CCCC1=O)c1nc(-c2ccc3[nH]ccc3c2)no1,-29.3
4,O=C(NCCN1CCCCC1)c1nc(-c2cccc3[nH]ccc23)no1,13.5
5,CNc1oc(-c2cc(S(=O)(=O)N3CCCC3)c(C)o2)nc1C#N,-25
6,COCCNC(=O)c1nc(-c2ccc3cc[nH]c3c2)no1,-17.1
7,CC(O)CNC(=O)CCc1nc2ncccc2[nH]1 (stereo not drawn),-29.9
8,O=C(NCCCO)c1nc(-c2ccc3cc[nH]c3c2)no1,-7.51
9,CC(C)CCNC(=O)C1CCN(c2ccc3nnc(C(C)C)n3n2)CC1,-30
10,O=C1CC(c2ccc(O)cc2)c2c(n3ccsc3nc2=O)N1 (stereo not drawn),-29.2
11,CC(C)n1c(=O)nc2n1C(=O)N(c1ccc(Br)cc1)C2,-16.1
12,Cc1oc(-c2nc(C#N)c(NC(C)C)o2)cc1S(=O)(=O)N1CCCCC1,-21.8
13,CN(C(=O)Cn1nc(-c2ccccc2Cl)ccc1=O)C1CCS(=O)(=O)C1 (stereo not drawn),-18.5
14,Cc1oc(-c2nc(C#N)c(NC3CC3)o2)cc1S(=O)(=O)N1CCCC1,-25.9
15,CN1CC2(CCN(Cc3cccnc3)CC2)c2cccc(F)c21,-2.73
16,Cc1ccc(C)c(CSc2nnc(C(N)Cc3ccccc3)o2)c1 (stereo not drawn),-14.6
17,CC(CNCc1ccc(Cl)cc1)Oc1ccccn1 (stereo not drawn),-10
18,CC(CNCc1ccc2c(c1)n(C)c(=O)n2C)Oc1ccccn1 (stereo not drawn),-24.7
19,Cc1noc([C@]23COC[C@H]2CN(C(C)C)C3)n1,1.38
20,CC(C)OCc1ncn2c1CN(CCO)CCC2,-0.995
21,CS(=O)(=O)NCc1cc(=O)n2c(n1)CN(Cc1ccco1)CCC2,-1.24
22,CC(C)N1CCO[C@H]2CN(C(=O)Cc3cccs3)C[C@H]21,-3.28
23,COCCN1CCO[C@@H]2CN(C(=O)Cc3ccccc3)CC[C@@H]2C1,-0.0515

row,SMILES,cytotoxicity at 70.5 h [%]
1,CN(C)C(=O)COCc1nnc2n1CCN(Cc1ccoc1)C2,-3.1
2,OCCN1CCOC2(CCCN(c3ncc(F)cn3)C2)C1 (stereo not drawn),-3.36
3,CN1CCCn2c(nc(CNS(=O)(=O)C3CC3)cc2=O)C1,-1.98
4,O=C(C1CN(CC2CCOCC2)CC12CCOCC2)N1CCCC1 (stereo not drawn),-2.27
5,CC(C)Nc1nc2c(c(N(C)C)n1)CCN(Cc1nccn1C)CC2,10.1
6,Cc1cnc(N2CCC3(CC2)CN(c2ccsc2)C(=O)CO3)nc1,-5
7,COCCN1CCN(S(C)(=O)=O)Cc2ccc(C)nc21,-2.02
8,CCCS(=O)(=O)N1CCN(CCOC)c2nc(C)ccc2C1,-8.9
9,CCN1CCOCC12CCN(C(=O)Cc1cccs1)CC2,-8.5
10,Cc1ccc2c(n1)N(CC1CC1)CCN(S(=O)(=O)C1CC1)C2,-5.85
11,Fc1ccc(CNCC2Cn3nncc3CO2)cc1 (stereo not drawn),-7.4
12,Cc1cnc(N2CCC[C@@H]3CN(CC(=O)N(C)C)C[C@@H]32)nc1,-6.11
13,Cc1ccc(N2C[C@@H]3CN(Cc4ccoc4)CCO[C@@H]3C2)nn1,10.2
14,OCCN1CC2(CCN(c3ccccc3)C2)C1,0.92
15,Cc1ccc(NCc2cn3c(n2)CN(Cc2ccc(C)o2)CC3)nn1,-4.46
16,Cc1ccc2c(c1)C(N(C)C)CC21CCN(CCO)CC1 (stereo not drawn),-0.704
17,CN1[C@H](Cn2cncn2)C[C@@H]2CN(C3CCOCC3)CC[C@@H]21,0.159
18,Fc1ccc(CN2CCC3(CC2)CCN(Cc2nccs2)CC3)cc1,1.45
19,c1ccc(OCc2nnc3n2CCN(Cc2ccco2)C3)nc1,-2.29
20,COCC(=O)N1CCCC2(COCCN(CCN(C)C)C2)C1 (stereo not drawn),8.27
21,CNC(=O)c1cnc2n1CCN(Cc1cccnc1)C2,-2.74
